Experimental data taken from patent US20220031684A1, “PROPHYLACTIC EFFICACY OF SEROTONIN 4 RECEPTOR AGONISTS AGAINST STRESS” (THE TRUSTEES OF COLUMBIA UNIVERSITY IN THE CITY OF NEW YORK, priority 2019, published 2022).
Structures can show the parent of a compound that is named as a salt.

Experiments:
Type in all cases: in vivo
BALB/cJRj mice [1] = experiment: EPM with optogenetic inhibition of mPFC terminals in the DRN (CaMKII-ArchT); details: for time, percent time spent in the open arms (EPM), light OFF / inhibition of the drug-induced increase in open-arm time (EPM) during 3-min green light illumination: intra-mPFC RS67333 0.5 pg/side or diazepam 1.5 pg/side; for inhibition of the drug-induced increase in open-arm time (EPM) during 3-min green light illumination: light ON
Protocol: (§1) The EPM is a widely used behavioral assay for rodents and it has been validated to assess the anti-anxiety effects of pharmacological agents (A-S11). This test was performed as described by (A-S1). The maze is a plus-cross-shaped apparatus, with two open arms and two arms closed by walls linked by a central platform 50 cm above the floor. Mice were individually put in the center of the maze facing an open arm and were allowed to explore the maze during 5 min for the behavioral consequences of an acute systemic administration or mPFC infusion and during 6 min for the optogenetic experiments. The time spent in and the numbers of entries into the open arms were used as an anxiety index. All parameters were measured using a videotracker (EPM3C, Bioseb, Vitrolles, France).
(§2) To target opsin expression selectively to cortical glutamatergic terminals in the DRN, AAV5-CaMKIIα-ChR2-enhanced yellow fluorescent protein (eYFP), AAV5-CaMKII-ArchT-green fluorescent protein (GFP) or AAV5-CaMKII-eYFP, obtained from Karl Deisseroth and Ed Boyden (UNC Vector Core, NC, USA) were bilaterally injected into the mPFC (in mm from bregma, A=+2.10, L=±0.50, V=−2.60). Mice injected with AAV5-CamKII-eYFP were used as control.
(§3) BALB/cJRj mice were surgically implanted with fiber optics targeted to the DRN (in mm from bregma, A=−4.50, L=+1.20, V=−4.0, angle 15°). A […] core, 0.37 NA fiber optic (ThorLabs, ˜10-12 and 15-16 mW for ChR2 and Arch-T, respectively, at the tip of optic) was used for optical stimulation via a patch cable connected to either a 473 or 532 nm laser diode (OEM laser systems, USA) as previously described (A-S15). For behavioral experiments, AAV5-CaMKIIα-ChR2-eYFP mice and their controls received a 10 Hz stimulation, 20 ms pulses, over a 3-minute period whereas a green light was delivered continuously to AAV5-CaMKII-ArchT-GFP throughout the 3 min testing period. Similar doses of RS67333 (locally in the mPFC at […] or at 1.5 mg/kg, i.p.) and diazepam (locally in the mPFC at […] or at 1.5 mg/kg, i.p.) were infused in the mPFC or administered i.p. The stimulation or the inhibition of mPFC projections in the DRN occurred simultaneously to the behavioral paradigms.

BALB/cJRj mice [2] = experiment: Splash Test after single dose; details: single systemic dose 1.5 mg/kg, 45 minutes before test
Protocol: Having shown that RS 67333 was provided with prophylactic properties, we subsequently sought to gain knowledge of this molecule in the long term, i.e. to find out whether the anxiolytic response brought about by RS 67333 is sustainable over time. In order to achieve this, the BALB/cJRj mice were systemically injected with a single dose of RS 67333 (1.5 mg/kg) or diazepam (1.5 mg/kg), 45 minutes before performing the Splash Test. The following day, the mice underwent the EPM without having received another dose of RS, and then at the open field 24 hours later, and, finally, to NSF 24 hours after the open field (FIG. 15A).

BALB/cJRj mice [3] = experiment: Elevated plus maze (EPM), acute anxiolytic-like effect; details: single dose 1.5 mg/kg; 24 hours after the injection
BALB/cJRj mice [4] = experiment: as above
Protocol: RS67333 (1.5 mg/kg, i.p.), diazepam (1.5 mg/kg, i.p.), fluoxetine (18 mg/kg, i.p.) were injected 45 min before testing in the Elevated Plus Maze (EPM), the Novelty Suppressed Feeding (NSF) or the Open Field (OF) in three independent cohorts of male BALB/cJRj mice.
To ensure the selectivity of the anxiolytic-like effects of RS67333, in a new cohort of male BALB/cJRj mice, GR125487 (1.0 mg/kg, i.p.) dissolved in 0.9% NaCl solution, was injected 15 minutes before RS67333 administration (1.5 mg/kg, i.p.). EPM or NSF occurred 45 min after RS67333 administration (A-S1). Behavioral consequences of the co-administration of GR125487+RS67333 were compared to RS67333 alone, diazepam (1.5 mg/kg, i.p.) fluoxetine (18 mg/kg, i.p.) and vehicle groups (0.9% saline solution, i.p.).
For mPFC drug infusion, two bilateral cannulae (75 μm-diameter silica capillary tubing inserted in 27G stainless steel catheter) were implanted in the mPFC [stereotaxic coordinates in mm from bregma: A=+2.10, L=±0.50, V=−2.60, A, anterior; L, lateral; and V, ventral, according to (A-S10)] under anesthesia (chloral hydrate, 400 mg/kg, i.p.). […] Diazepam (1.5 mg/kg) was used as a positive control.
In a new cohort of male BALB/cJRj mice, p-CPA was administered twice daily (at 0900 and 1700 h) for 3 consecutive days. RS67333 ([…]) and diazepam ([…]) were then intra-mPFC administered 24 h after the final p-CPA administration and behavioral test (EPM) occurred 45 minutes after local infusion.
as §1

BALB/cJRj mice [5] = experiment: OF with optogenetic inhibition of mPFC terminals in the DRN (CaMKII-ArchT); details: intra-mPFC RS67333 0.5 pg/side or diazepam 1.5 pg/side; for inhibition of the drug-induced increase in center time (OF) during 3-min green light illumination: light ON
Source text: (§4) Motor activity was quantified in four 39×39 cm perpex plastic open field boxes (Vivo-tech/Ugo Basile, Salon de Provence, France). The apparatus was illuminated from the ground with special designed 40×40 cm Infra-red backlights (monochromatic wavelength 850 nm high homogeneity, Vivo-tech, Salon de Provence, France). Activity chambers were monitored by four black and white cameras with varifocal optics and polarizing filters (Vivo-tech, Salon de Provence, France). For optogenetic experiments, optical bandpass filters were specifically selected to improve tracking detection. The whole set-up was controlled using ANYMAZE version 6 video tracking software (Stoelting Co/Vivo-tech, Salon de Provence, France). Dependent measures were time in the center over a 10 min for systemic administration or 6 min test period for optogenetic experiments, total ambulatory distance and ambulatory distance traveled in the center divided by total distance.
as §2, §3

BALB/cJRj mice [6] = experiment: Open field paradigm (OF), acute anxiolytic-like effect; details: for percent time spent in Center (OF) vs vehicle: male BALB/cJRj, RS67333 1.5, diazepam 1.5, fluoxetine 18 mg/kg; for time spent in the center of the OF: single dose 1.5 mg/kg, 48 hours after the injection
Source text: as §4

[7] = CaMKII-ArchT-mPFC injected mice, systemic RS67333 1.5 mg/kg or diazepam 1.5 mg/kg
[8] = CamKII-ArchT mice, intra-mPFC infusion

SMILES | decrease in time spent in the open arms (EPM), light ON vs light OFF (BALB/cJRj mice [1]; [7]) | time, percent time spent in the open arms (EPM), light OFF (BALB/cJRj mice [1]; CamKII-ArchT mice) | inhibition of the drug-induced increase in open-arm time (EPM) during 3-min green light illumination (BALB/cJRj mice [1]; CamKII-ArchT mice) | grooming time (Splash Test) (BALB/cJRj mice [2]) | number of grooming episodes (Splash Test) (BALB/cJRj mice [2]) | anxiolytic effects in the EPM (BALB/cJRj mice [3]) | time and percent time spent in the open arms (EPM) vs vehicle (BALB/cJRj mice [4]; intra-mPFC infusion 45 min before testing, RS67333 0.5 pg/side (1 pg), diazepam 1.5 pg/side, HCl) | time and percent time spent in the open arms (EPM) vs vehicle (BALB/cJRj mice [4]; male BALB/cJRj, i.p. 45 min before testing, RS67333 1.5 mg/kg, diazepam 1.5 mg/kg) | time spent in the center (OF), light OFF (BALB/cJRj mice [5]) | inhibition of the drug-induced increase in center time (OF) during 3-min green light illumination (BALB/cJRj mice [5]) | percent time spent in Center (OF) vs vehicle (BALB/cJRj mice [6]; i.p. 45 min before testing) | time spent in the center of the OF (BALB/cJRj mice [6]) | time, percent time in open arms and ratio open arms/total distance (EPM), light OFF vs vehicle (BALB/cJRj mice [1]; [7]) | drug-induced increase of ratio open arms/total distance (EPM), light ON (BALB/cJRj mice [1]; [8]) | ratio of ambulatory distance in open arms divided by total distance (EPM), light OFF vs controls (BALB/cJRj mice [1]; [8]) | ratio of ambulatory distance in the open arms divided by total distance (EPM) vs vehicle (BALB/cJRj mice [4]; i.p. 45 min before testing, RS67333 1.5 mg/kg, diazepam 1.5 mg/kg) | time and percent time spent in the open arms (EPM) vs vehicle (BALB/cJRj mice [4]; intra-mPFC infusion 45 min before testing, RS67333 0.5 pg/side (1 pg), diazepam 1.5 pg/side) | time and percent time spent in the open arms (EPM) vs vehicle (BALB/cJRj mice [4]; male BALB/cJRj, i.p. 45 min before testing, RS67333 1.5 mg/kg, diazepam 1.5 mg/kg, hydrochloride) | drug-induced increase in time, percent time in open arms and ratio open arms/total distance (EPM) in 5-HT-depleted p-CPA mice (BALB/cJRj mice [4]; p-CPA pre-treatment 3 days, intra-mPFC RS67333 0.5 pg/side or diazepam 1.5 pg/side) | ratio of ambulatory distance in the center divided by total distance (OF) vs vehicle (BALB/cJRj mice [6]; i.p. 45 min before testing, RS67333 1.5, diazepam 1.5 mg/kg)
CCCCN1CCC(CCC(=O)c2cc(Cl)c(N)cc2OC)CC1.Cl [RS-67,333, 1-(4-amino-5-chloro-2-methoxyphenyl)-3-[1(n-butyl)-4-piperidinyl]-1-propanone HCl] | 24% | increased significantly time | 70±8% | increased the grooming time | without affecting the number of episodes | have not identified the anxiolytic effects expected | significantly increased time and percent time spent in the open arms | increased | increased significantly the time spent in the center | 85±20% | increase | increased the time spent in the center | – | – | – | – | – | – | – | –
CN1C(=O)CN=C(c2ccccc2)c2cc(Cl)ccc21 [diazepam, Diazepam hydrochloride] | 17% | increased significantly time | 85±5% | not identify any effect in the Splash Test | – | have not been able to observe any long-term activity | – | – | increased significantly the time spent in the center | 80±22% | increase | have not been able to observe any long-term activity | increased time, percent time spent in open arms | blocked | increased the ratio | significantly increased | increased time, percent time spent in the open arms | significantly increased time and percent time spent in the open arms | abolished | significantly increased
